Source: PubChem BioAssay AID248 (DTP/NCI, 2004)
Inconclusive results and toxic doses are left out. No stated cut-off is given here; in the data, active means T/C of 150% or more; inactive means T/C below 125%.

System: L1210 leukemia ip in BDF1 mice, survival T/C
Experiment: NCI In Vivo Anticancer Drug Screen. Data for tumor model L1210 Leukemia (intraperitoneal) in B6D2F1 (BDF1) mice
Conditions: endpoint: mean survival time, higher = longer survival
How it was run: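 Value reflects the ratio of survival in compound-treated mice to survival in vehicle-treated controls, with both groups carrying the same transplanted tumor.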

[1] = dose: 100.0 mg/kg/injection, schedule: Q04DX003 (ip), vehicle: saline with Tween-80
[2] = dose: 200.0 mg/kg/injection, schedule: Q04DX003 (ip), vehicle: saline with Tween-80
[3] = dose: 400.0 mg/kg/injection, schedule: Q04DX003 (ip), vehicle: saline with Tween-80
[4] = dose: 100.0 mg/kg/injection, schedule: Q01DX001 (ip), vehicle: carboxymethylcellulose (CMC)
[5] = dose: 200.0 mg/kg/injection, schedule: Q01DX001 (ip), vehicle: carboxymethylcellulose (CMC)
[6] = dose: 100.0 mg/kg/injection, schedule: Q04DX003 (ip), vehicle: Klucel (hydroxypropylcellulose) (HPC)
[7] = dose: 200.0 mg/kg/injection, schedule: Q04DX003 (ip), vehicle: Klucel (hydroxypropylcellulose) (HPC)
[8] = dose: 400.0 mg/kg/injection, schedule: Q04DX003 (ip), vehicle: Klucel (hydroxypropylcellulose) (HPC)

Measured: T/C

Cc1noc(N)c1N
inactive: dose: 100.0 mg/kg/injection, schedule: Q01DX009 (ip), vehicle: water 105 % of control | dose: 100.0 mg/kg/injection, schedule: Q04DX003 (ip), vehicle: water 93 % of control | dose: 200.0 mg/kg/injection, schedule: Q01DX009 (ip), vehicle: water 115 % of control | dose: 200.0 mg/kg/injection, schedule: Q04DX003 (ip), vehicle: water 96 % of control | dose: 400.0 mg/kg/injection, schedule: Q01DX009 (ip), vehicle: water 121 % of control | dose: 400.0 mg/kg/injection, schedule: Q04DX003 (ip), vehicle: water 102 % of control

c1cc2c3c(c1)CCC3CCC2 (configuration not stated)
inactive: [1] 90 % of control | [2] 95 % of control | [3] 97 % of control

N#Cc1ccc(O)c(N)c1
inactive: dose: 100.0 mg/kg/injection, schedule: Q01DX001 (ip), vehicle: saline 95 % of control | dose: 200.0 mg/kg/injection, schedule: Q01DX001 (ip), vehicle: saline 90 % of control | dose: 400.0 mg/kg/injection, schedule: Q01DX001 (ip), vehicle: saline 90 % of control

CCOC(=O)C1CC(=O)c2cc(OC)c(OC)cc2C1c1ccc(OC)c(OC)c1 (configuration not stated)
inactive: [4] 98 % of control | [5] 89 % of control

CCC(C)N1OC1c1ccccc1 (configuration not stated)
inactive: [4] 106 % of control | [5] 103 % of control | dose: 400.0 mg/kg/injection, schedule: Q01DX001 (ip), vehicle: carboxymethylcellulose (CMC) 101 % of control

Cc1cc(Br)c(I)c([N+](=O)[O-])c1
inactive: dose: 37.5 mg/kg/injection, schedule: Q04DX003 (ip), vehicle: saline with Tween-80 104 % of control | dose: 75.0 mg/kg/injection, schedule: Q04DX003 (ip), vehicle: saline with Tween-80 95 % of control | dose: 150.0 mg/kg/injection, schedule: Q04DX003 (ip), vehicle: saline with Tween-80 102 % of control

N#CCc1ccc([N+](=O)[O-])cc1
inactive: dose: 12.5 mg/kg/injection, schedule: Q01DX009 (ip), vehicle: Klucel (hydroxypropylcellulose) (HPC) 102 % of control | dose: 12.5 mg/kg/injection, schedule: Q04DX003 (ip), vehicle: Klucel (hydroxypropylcellulose) (HPC) 98 % of control | dose: 25.0 mg/kg/injection, schedule: Q01DX009 (ip), vehicle: Klucel (hydroxypropylcellulose) (HPC) 106 % of control | dose: 25.0 mg/kg/injection, schedule: Q04DX003 (ip), vehicle: Klucel (hydroxypropylcellulose) (HPC) 106 % of control | dose: 50.0 mg/kg/injection, schedule: Q04DX003 (ip), vehicle: Klucel (hydroxypropylcellulose) (HPC) 98 % of control

C(=N/Sc1ccccc1)/c1ccccc1
inactive: dose: 100.0 mg/kg/injection, schedule: Q04DX002 (ip), vehicle: Klucel (hydroxypropylcellulose) (HPC) 98 % of control | dose: 200.0 mg/kg/injection, schedule: Q04DX002 (ip), vehicle: Klucel (hydroxypropylcellulose) (HPC) 98 % of control | dose: 400.0 mg/kg/injection, schedule: Q04DX002 (ip), vehicle: Klucel (hydroxypropylcellulose) (HPC) 112 % of control

COc1ccc(OC)c(C(=O)CCCCCCCCC(=O)c2cc(OC)ccc2OC)c1
inactive: [6] 104 % of control | [7] 104 % of control | [8] 90 % of control

CC(=O)N(CC(=O)O)c1ccccc1
inactive: [1] 101 % of control | [2] 103 % of control | [3] 98 % of control

O=C1CCC2CCC(CC2)O1
inactive: dose: 5.0 mg/kg/injection, schedule: Q01DX001 (ip), vehicle: saline 119 % of control | dose: 10.0 mg/kg/injection, schedule: Q01DX001 (ip), vehicle: saline 92 % of control | dose: 20.0 mg/kg/injection, schedule: Q01DX001 (ip), vehicle: saline 97 % of control

COCCCNCCCN1CC1
inactive: dose: 31.25 mg/kg/injection, schedule: Q04DX003 (ip), vehicle: saline 105 % of control | dose: 62.5 mg/kg/injection, schedule: Q01DX009 (ip), vehicle: saline 106 % of control | dose: 62.5 mg/kg/injection, schedule: Q04DX003 (ip), vehicle: saline 114 % of control

CNc1cc(Cl)c(C#N)c(Cl)c1
inactive: dose: 100.0 mg/kg/injection, schedule: Q01DX001 (ip), vehicle: Klucel (hydroxypropylcellulose) (HPC) 105 % of control | [6] 94 % of control | dose: 200.0 mg/kg/injection, schedule: Q01DX001 (ip), vehicle: Klucel (hydroxypropylcellulose) (HPC) 105 % of control | [7] 100 % of control | dose: 400.0 mg/kg/injection, schedule: Q01DX001 (ip), vehicle: Klucel (hydroxypropylcellulose) (HPC) 103 % of control | [8] 99 % of control

Cc1c2oc3c(C)ccc(C(=O)OCCN4CCOCC4)c3nc-2c(C(=O)OCCN2CCOCC2)c(N)c1=O
inactive: dose: 100.0 mg/kg/injection, schedule: Q04DX002 (ip), vehicle: saline 98 % of control | dose: 200.0 mg/kg/injection, schedule: Q04DX002 (ip), vehicle: saline 103 % of control

O=C(O)C1C2CC3OC(=O)C1C3C2O (configuration not stated)
inactive: dose: 100.0 mg/kg/injection, schedule: Q01DX009 (ip), vehicle: saline 103 % of control | [1] 96 % of control | dose: 200.0 mg/kg/injection, schedule: Q01DX009 (ip), vehicle: saline 94 % of control | [2] 86 % of control | dose: 400.0 mg/kg/injection, schedule: Q01DX009 (ip), vehicle: saline 100 % of control | [3] 86 % of control

CCOc1ccc(/C=N/NC(=O)c2ccc(O)c(OC)c2)cc1OC
inactive: dose: 100.0 mg/kg/injection, schedule: Q01DX009 (ip), vehicle: saline with Tween-80 103 % of control | dose: 200.0 mg/kg/injection, schedule: Q01DX009 (ip), vehicle: saline with Tween-80 92 % of control | dose: 400.0 mg/kg/injection, schedule: Q01DX009 (ip), vehicle: saline with Tween-80 96 % of control

CC(=O)O[C@H]1CC[C@H]2[C@@H]3CC[C@H]4C[C@@H]5[C@H](C[C@]4(C)[C@H]3CC[C@]12C)C5(F)F
inactive: dose: 50.0 mg/kg/injection, schedule: Q01DX001 (sc), vehicle: steriod suspending solution 102 % of control | dose: 50.0 mg/kg/injection, schedule: Q01DX009 (sc), vehicle: steriod suspending solution 103 % of control | dose: 100.0 mg/kg/injection, schedule: Q01DX001 (sc), vehicle: steriod suspending solution 101 % of control | dose: 100.0 mg/kg/injection, schedule: Q01DX009 (sc), vehicle: steriod suspending solution 105 % of control | dose: 200.0 mg/kg/injection, schedule: Q01DX001 (sc), vehicle: steriod suspending solution 98 % of control | dose: 200.0 mg/kg/injection, schedule: Q01DX009 (sc), vehicle: steriod suspending solution 102 % of control | dose: 400.0 mg/kg/injection, schedule: Q01DX001 (sc), vehicle: steriod suspending solution 101 % of control | dose: 400.0 mg/kg/injection, schedule: Q01DX009 (sc), vehicle: steriod suspending solution 102 % of control

CC1(C)N=C(N)N=C(N)N1c1ccc(CNC(=O)Nc2ccc(S(=O)(=O)F)cc2)c(Cl)c1
inactive: dose: 45.0 mg/kg/injection, schedule: Q01DX009 (ip), vehicle: saline 111 % of control | dose: 67.0 mg/kg/injection, schedule: Q01DX009 (ip), vehicle: saline 120 % of control
